From patent publication US9144596B2, “Compositions and methods of treating neoplasia” (University of Florida Research Foundation, Inc., priority 2007, dated 2015)
Entries after “also recorded” stand apart in the source; their conditions may differ.

Legend:
pol-β [1] = target: T1, pol-β (Homo sapiens, UniProt P06746); assay: strand-displacement synthesis, reconstituted in vitro base excision repair assay with 32P-F-DNA; assay type: biochemical; conditions: for pol-β-directed single-nucleotide incorporation: all the concentrations tested; for pol-β-directed strand-displacement synthesis: different concentrations
T1 construct: made in house; host or cells: Escherichia coli BL21(DE3)pLysS

pol-β [2] = target: T1, pol-β; assay: dRP-lyase activity assay; assay type: biochemical; conditions: 1 nM pol-βwt; various concentrations of test substance
HCT-116(APC+/+) cells = assay: sulforhodamine B (SRB) colorimetric cytotoxicity assay; assay type: cell-based, human; conditions: for effect on the cytotoxicity of TMZ: 2 hours pretreatment, then TMZ 48 hours
Method: (§1) The IC50 (the drug concentration needed to prevent cell proliferation by 50%) of TMZ was determined using a sulforhodamine B (SRB) colorimetric assay. This assay relies on the ability of SRB to bind the protein components of cells that have been fixed to tissue culture plates by trichloroacetic acid (TCA) (Vachai V, Kirtikara K. Sulforhodamine B colorimetric assay for cytotoxicity screening. Nat. Proto. 3: […], 2006). Briefly, the HCT-116(APC^+/+) and HCT-116(APC^−/−) were seeded in 96-well plates at a density of 500 cells per well. After 24 hours, while the cells were in the log phase of cell growth, the cells were treated with different concentrations of TMZ for 48 hours. The cells were subsequently fixed with 10% (w/v) of tricholoroacetic acid, washed with double distilled water, and stained with 0.4% SRB. Cells were then repeatedly washed with 1% (v/v) of acetic acid to remove the unbound dye. The protein bound dye was dissolved in 10 mM Tris-base solution (pH 10.5). The developed color was measured at 564 nm. The percentage of cell survival as a function of drug concentration was then plotted to determine the IC50 value. The IC50 of TMZ in HCT-116(APC^+/+) and HCT-116(APC^−/−) cells was 200 and 400 μM, respectively (FIG. 18A). […] This is consistent with the hypothesis that APC-mediated blockage of base excision repair increase d the sensitivity to TMZ in APC^+/+ cells. SRB assays were then used to determine whether TMZ-induced cytotoxicity was correlative to the increased level of APC in HCT-116(APC^+/+) cells.
(§2) APC blocked base excision repair and sensitized colon cancer cells after TMZ treatment. […] The cellular toxicity was determined by sulforhodamine B (SRB) colorimetric assay as described above. […] The cytotoxicity of these compounds was greater in HCT-116(APC^+/+) cells than in HCT-116(APC^−/−) cells (FIG. 19, compare the results of Panel A with B and C with D, respectively).

HCT-116(APC−/−) cells = assay: as above; assay type: cell-based, human; conditions: for effect on the cytotoxicity of TMZ: 2 hours pretreatment, then TMZ 48 hours
Method: as §1, §2

SW480 cells = assay: SRB cytotoxicity assay, MMR-proficient cells; assay type: cell-based, human
Method: (§3) FIGS. 24A and 24D NSC-124854 enhanced the cytotoxicity of TMZ in both MMR-positive and MMR-negative colon cancer cell lines in culture. […] After 48 hours, cells were harvested and processed for cytotoxicity determination. Data presented are the mean±SE of three different estimations.
as §1

[3] = test system: HCT-116-APC(WT)+ch3 cells; assay: SRB cytotoxicity assay, MMR-proficient cells; assay type: cell-based, human
Method: as §3, §1

[4] = test system: HCT-116(APC+/+) and HCT-116(APC−/−) colon cancer cell lines; assay: SRB cytotoxicity of the compounds alone (FIGS. 19E and F); assay type: cell-based, human; conditions: up to 100 μM concentrations
Method: After 48 hours, cells were harvested and processed for cytotoxicity determination as described herein. […] Data are the mean±SE of three different estimations.
(§4) The IC50 (the drug concentration needed to prevent cell proliferation by 50%) of TMZ was determined using a sulforhodamine B (SRB) colorimetric assay. This assay relies on the ability of SRB to bind the protein components of cells that have been fixed to tissue culture plates by trichloroacetic acid (TCA) (Vachai V, Kirtikara K. Sulforhodamine B colorimetric assay for cytotoxicity screening. Nat. Proto. 3: […], 2006). Briefly, the HCT-116(APC^+/+) and HCT-116(APC^−/−) were seeded in 96-well plates at a density of 500 cells per well. After 24 hours, while the cells were in the log phase of cell growth, the cells were treated with different concentrations of TMZ for 48 hours. The cells were subsequently fixed with 10% (w/v) of tricholoroacetic acid, washed with double distilled water, and stained with 0.4% SRB. Cells were then repeatedly washed with 1% (v/v) of acetic acid to remove the unbound dye. The protein bound dye was dissolved in 10 mM Tris-base solution (pH 10.5). The developed color was measured at 564 nm. […]
APC blocked base excision repair and sensitized colon cancer cells after TMZ treatment. […] The cellular toxicity was determined by sulforhodamine B (SRB) colorimetric assay as described above. […]

pol-β [5] = target: T1, pol-β; assay: in vitro SN- and LP-BER assay with 32P-U-DNA; assay type: biochemical; conditions: for complete repair of 32P-U-DNA by the SN-BER pathway: absence of Fen-1, DNA ligase I; for complete repair of 32P-U-DNA by the LP-BER pathway: presence of Fen-1, DNA ligase I
LoVo cells = assay: SRB cytotoxicity assay, MMR-deficient cells; assay type: cell-based; conditions: Homo sapiens, TMZ alone, 48 hours
Method: (§5) FIGS. 24A and 24D NSC-124854 enhanced the cytotoxicity of TMZ in both MMR-positive and MMR-negative colon cancer cell lines in culture. MMR-proficient [HCT-116-APC(WT)+ch3 and SW480 (Panel 24A and […])] and MMR-deficient [CACO-2 and LoVo (Panel 24C and 24D)] cells were pretreated for 2 hours with 50 μM of NSC-124854 followed by the treatment with different concentrations of TMZ. After 48 hours, cells were harvested and processed for cytotoxicity determination. Data presented are the mean±SE of three different estimations.
as §4, with “SRB.” for “SRB. Cells were then repeatedly washed with 1% (v/v) of acetic acid to remove the unbound dye. The protein bound dye was dissolved in 10 mM Tris-base solution (pH 10.5). The developed color was measured at 564 nm.”

CACO-2 cells = assay: SRB cytotoxicity assay, MMR-deficient cells; assay type: cell-based; conditions: Homo sapiens; CACO-2, TMZ alone, 48 hours
Method: as §5
as §4, with “SRB.” for “SRB. Cells were then repeatedly washed with 1% (v/v) of acetic acid to remove the unbound dye. The protein bound dye was dissolved in 10 mM Tris-base solution (pH 10.5). The developed color was measured at 564 nm.”

pol-β [6] = target: T1, pol-β; assay: long patch-base excision repair assay with 32P-F-DNA; assay type: biochemical; conditions: pol-βwt, Fen-1, DNA ligase I; 2 μM APCwt peptide
Method: To determine whether the blockage in the strand-displacement synthesis by the pol-βMut-1 was sufficient to block long patch-base excision repair, a long patch-base excision repair assay was set up as outlined in FIG. 10A. […] This DNA repair was blocked in the presence of 2 μM APCwt peptide, but not with APC(I-A,Y-A) peptide (FIG. 10B, compare lane 5 with 8 for APCwt and with 9-11 for APC(I-A,Y-A), respectively, for the formation of the 63-mer ligated product). […] The 2-nucleotide strand-displacement synthesis by pol-βMut-1 protein was sufficient to carry out long patch-base excision repair in the presence of Fen-1.
To study long patch- and single nucleotide-base excision repair activities, different types of DNA substrates were used. For long patch-base excision repair activity, an AP-site analog (3-hydroxy-2-hydroxymethyltetrahydrofuran, noted as F) was introduced at the 24th position of the 63-mer DNA (5′-[…] CGACA-3′ (SEQ ID NOS 17-18)), which was called F-DNA (27). For making U-DNA, uracil was introduced at the 24th position of 63-mer sense oligonucleotide (5′-[…] GACA-3′ (SEQ ID NO: 19)). Sense strands of F-DNA and U-DNA were 5′-end labeled by [a-^32P]ATP and T4 polynucleotide kinase and purified with a nick-column (GE Healthcare, Piscataway, N.J.). Later they were annealed with the complementary 63-mer oligonucleotide (5′-[…] CTAG-3′ (SEQ ID NO: 20)) at a 1:1 molar ratio. […]

[7] = 32P-U-DNA substrate, dose-dependent

pol-β-directed single-nucleotide incorporation (pol-β [1]; 32P-F-DNA substrate)	pol-β-directed strand-displacement synthesis (pol-β [1]; 32P-F-DNA substrate)	pol-β-directed dRP-lyase activity (pol-β [2])	complete repair of 32P-U-DNA by the SN-BER pathway (pol-β [5])	complete repair of 32P-U-DNA by the LP-BER pathway (pol-β [5])	complete DNA repair of F-DNA (63-mer ligated product), LP-BER (pol-β [6])	Molecule	effect on the cytotoxicity of TMZ (HCT-116(APC+/+) cells; HCT-116(APC+/+))	effect on the cytotoxicity of TMZ (HCT-116(APC−/−) cells)	cytotoxicity of the compound alone [4]	also measured
unaffected	dose-dependent decrease	did not inhibit	–	–	–	O=C(O)CC(C(=O)O)C(CC(=O)O)C(=O)O (centres unmarked) [CN3]	–	–	–	–
–	dose-dependent decrease	successfully blocked	blocked in a dose-dependent manner	blocked in a dose-dependent manner	–	NC1=NC(=O)N(C2CC(O)C(COP(=O)(O)O)O2)C(I)C1 (centres unmarked) [NSC-124854]	increased	increased	very low	reduction of the IC50 of TMZ (SW480 cells; SW480, combination of 50 μM of NSC-124584): 2.5 fold; reduction of the IC50 of TMZ ([3]; HCT-116-APC(WT)+ch3, combination of 50 μM of NSC-124584): 2.5 fold; DNA synthesis (1-nt and strand-displacement) of pol-β (pol-β [1]; 32P-F-DNA substrate): completely blocked; potency among the four compounds tested, strand-displacement synthesis (pol-β [1]; inhibited at lower concentrations): most potent; Pol-β-mediated 1-nt incorporation (pol-β [5]; [7]): blocked; strand-displacement synthesis in the presence of Fen-1 (pol-β [5]; [7]): blocked
–	–	–	–	–	–	Cc1cc(S(=O)(=O)Nc2n[nH]c(Nc3ccc(Cl)cc3)n2)c(S)cc1Cl [NSC-666715]	increased	increased	very low	–
–	–	–	–	–	–	Cn1nnc2c(C(N)=O)ncn2c1=O [TMZ, Temozolomide, reference compound]	–	–	–	IC50 (HCT-116(APC+/+) cells; Homo sapiens, HCT-116(APC+/+), 48 hours, SRB, read-out: IC50 of TMZ): 200 µM; sensitivity to TMZ of HCT-116(APC+/+) versus HCT-116(APC−/−) cells (HCT-116(APC+/+) cells; ratio of IC50): 2 times; IC50 (HCT-116(APC−/−) cells; Homo sapiens, 48 hours, SRB, read-out: IC50 of TMZ): 400 µM; IC50 (SW480 cells; Homo sapiens, SW480, TMZ alone, 48 hours): 120 µM; IC50 ([3]; Homo sapiens, HCT-116-APC(WT)+ch3, TMZ alone, 48 hours): 100 µM; IC50 (LoVo cells): 677 µM; IC50 (CACO-2 cells): 364 µM
unaffected	not	did not show any effect	not	not	not	APC(I-A,Y-A): mutant APC peptide 1250-KVSSINQETAQTACVEDTPI-1269, Ile1259 and Tyr1262 replaced with alanine (UniProt P25054 1250-1269, looked up, variant I1259A Y1262A) [reference compound]	–	–	–	–

Molecule	pol-β-directed single-nucleotide incorporation (pol-β [1]; 32P-F-DNA substrate)	pol-β-directed strand-displacement synthesis (pol-β [1]; 32P-F-DNA substrate)	pol-β-directed dRP-lyase activity (pol-β [2])	complete repair of 32P-U-DNA by the SN-BER pathway (pol-β [5])	complete repair of 32P-U-DNA by the LP-BER pathway (pol-β [5])	complete DNA repair of F-DNA (63-mer ligated product), LP-BER (pol-β [6])	effect on the cytotoxicity of TMZ (HCT-116(APC+/+) cells; HCT-116(APC+/+))	effect on the cytotoxicity of TMZ (HCT-116(APC−/−) cells)	cytotoxicity of the compound alone [4]	also measured
APCwt: wild-type APC peptide of 20 amino acids, 1250-KVSSINQETIQTYCVEDTPI-1269, DNA repair inhibitory (DRI)-domain (UniProt P25054 1250-1269, looked up, fragment)	unaffected	dose-dependent decrease; also recorded: blocked	blocked	blocked	blocked	blocked	–	–	–	–
